In article PMC12563536, “A Novel Allosteric Inhibitor Targeting IMPDH at Y233 Overcomes Resistance to Tyrosine Kinase Inhibitors in Lymphoma” (Cancers, 2025):

How the values were obtained:
Type in all cases: biochemical
recombinant human IMPDH2 [1] = molecular target: T1, recombinant human IMPDH2 (Homo sapiens, UniProt P12268); test: IMPDH activity assay kit, microplate; settings: targeted to allosteric GTP-binding site of the CBS domain (site from docking)
T1 construct: commercial recombinant protein (R&D Systems); 514 residues full length; tetramer/octamer
T1 sequence (P12268 2-514): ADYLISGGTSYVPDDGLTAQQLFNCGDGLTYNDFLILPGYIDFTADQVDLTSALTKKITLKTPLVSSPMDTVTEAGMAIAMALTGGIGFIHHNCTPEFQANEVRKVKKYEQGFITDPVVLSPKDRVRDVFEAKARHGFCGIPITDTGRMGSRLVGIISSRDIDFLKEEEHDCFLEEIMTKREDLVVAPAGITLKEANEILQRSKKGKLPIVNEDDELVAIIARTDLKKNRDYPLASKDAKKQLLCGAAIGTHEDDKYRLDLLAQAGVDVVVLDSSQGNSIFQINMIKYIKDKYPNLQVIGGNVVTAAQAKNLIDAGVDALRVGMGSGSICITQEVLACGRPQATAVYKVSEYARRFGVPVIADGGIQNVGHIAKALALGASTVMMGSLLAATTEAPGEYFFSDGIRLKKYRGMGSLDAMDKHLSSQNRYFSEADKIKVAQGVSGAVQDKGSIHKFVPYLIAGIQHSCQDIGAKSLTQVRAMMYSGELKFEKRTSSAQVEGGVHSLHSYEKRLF

recombinant human IMPDH2 [2] = molecular target: T1, recombinant human IMPDH2; test: IMPDH activity assay, 96-well screen; settings: read-out: % inhibition at 10 μM
recombinant human IMPDH2 [3] = molecular target: T1, recombinant human IMPDH2; test: IMPDH activity assay kit, microplate, […] min preincubation; settings: dose-dependent, 50-200 µM tested

| inhibition at 10 µM (recombinant human IMPDH2 [2]) [%] | Structure (SMILES) | also measured |
| --- | --- | --- |
| – | O=C1C=CC(=O)c2c(O)c(N3CCN(CCOCCO)CC3)c(Br)c(O)c21 [compound 10, Comp-10] | IC50 (recombinant human IMPDH2 [1]): ~260 nM |
| > 52 | O=C1c2ccccc2C(=O)C1C(c1ccc([N+](=O)[O-])cc1)C1C(=O)c2ccccc2C1=O [compound 12, comp-12] | – |
| > 32 | CN(C)c1ccc(C=c2sc3nc(=O)c(-c4ccccc4NC(=O)C(F)(F)F)nn3c2=O)cc1 [compound 5, comp-5] | – |
| – | CCCCCCCC(=O)OC[C@H](COP(=O)(O)O[C@@H]1[C@H](O)[C@H](OP(=O)(O)O)[C@@H](O)[C@H](O)[C@H]1O)OC(=O)CCCCCCC [PI(3)P diC8] | % inhibition at 200 μM (recombinant human IMPDH2 [3]): > 50% |
